Laboratory results as given in US5461154A, “Intermediate and process for making” (Eli Lilly and Company, priority 1994, dated 1995).

Biological target: T1, HIV-1 protease (Human immunodeficiency virus type 1 group M subtype B, UniProt P04585)
T1 construct: Purified HIV-1 protease was obtained as described above; made in house; host or cells: E. coli K12 L507/pHP10D (NRRL B-18560)
Assay: biochemical
Conditions: not given
Procedure: A culture of E. coli K12 L507/pHP10D was grown to mid-log phase at 32° C. in LB media containing 12.5 μg/mL tetracycline. The cultivation temperature was quickly elevated to 40° C. to induce gene expression, and the cells were allowed to grow for 2.5 hours at this temperature before the culture was quickly chilled on ice. The cells were centrifuged and the cell pellet was resuspended in 20 mL of 50 mmol MES buffer (pH 6.0) containing 1 mmol EDTA, 1 mmol DTT, 1 mmol PMSF and 10% glycerol ("Buffer A"). Cells were lysed by sonication using a Fischer Model 300 Dismembrator and a microtip probe. Following centrifugation at 27,000×g, the supernatant was diluted to a total volume of 60 mL with Buffer A and loaded onto a 2.0×19 cm QAE-Sepharose column (1 mL/min, 4° C.), that had been equilibrated in Buffer A. The column was washed isocratically for 180 min and then eluted with a gradient eluent of 0-1.0M aqueous sodium chloride in Buffer A over 120 min. Enzymatic activity was measured by HPLC using the synthetic peptide Ser-Gln-Asn-Tyr-Pro-Ile-Val as described in Margolin et al., Biochem. Biophys. Res. Common., 167, 554-560 (1990); the production of the p1 peptide (Ser-Gln-Asn-Tyr) was measured.
The active fractions were combined, adjusted to […] 1.2M in ammonium sulfate, and applied to a 2.0×18 cm hexyl agarose column that had been equilibrated in Buffer A containing 1.2M ammonium sulfate. The sample was loaded at a flow rate of 1 mL/min at 4° C., washed with the equilibration buffer for 240 min (1 mL/min) and then eluted using a reverse linear gradient of 1.2-0M ammonium sulfate in Buffer A for 120 min at the same flow rate. The column was then washed isocratically in Buffer A for 120 min.
The active fractions were combined, concentrated to 10 mL using an Amicon stirred cell with a YM-10 membrane and then applied to a MonoS cation exchange column (1.0×10 cm) that had been equilibrated in Buffer A. The sample was loaded at a flow rate of 1 mL/min at 25° C. After washing isocratically for 30 min, the protease was eluted using a linear gradient of 0-0.45M aqueous sodium chloride in Buffer A over 40 min. The column was washed isocratically in Buffer A containing 0.45M aqueous sodium chloride for 30 minutes.
The active fractions were combined and concentrated to 200 μL using an Amicon stirred cell and a YM-10 membrane and then the protease was applied to a Superose 6 size exclusion column equilibrated in Buffer A containing 0.1M aqueous sodium chloride.
E. Fluorescence HIV-1 Protease Inhibitor Assay
The following buffers and solutions are used in the Fluorescence HIV-1 Protease Inhibitor Assay:
To each well of a round bottom, 96-well plate is added 20 μL of the Enzyme Solution followed by 10 μL of the compound to be evaluated in a 20% aqueous dimethylsulfoxide solution. Purified HIV-1 protease was obtained as described above. The resulting solution is incubated for one hour at room temperature and then 20 μL of a solution containing the substrate, prepared above, in MES-ALB buffer (1.5 μL/mL) is added to each well. The solutions are then incubated for 16 hours at room temperature and then each well is diluted with 150 μL of MES-ALB buffer.
To each well of a second round bottom, 96-well Pandex plate is added 25 uL of the Avidin Coated Beads Solution. Then, to each well is added 25 μL of the diluted incubation solutions, prepared above. The solutions are mixed thoroughly and the plates are loaded into a Pandex® machine, washed, evacuated and read. Sample detection was performed by excitation at 485 nm, reading the resulting epifluorescence at 535 nm.

SMILES | IC50 [nM]
Cc1c(O)cccc1C(=O)N[C@@H](Cc1ccccc1)[C@H](O)CN1CCC[C@H]1C(=O)NC(C)(C)C [Example 4, [2S-(2R*,2'S*,3'R*)]-1-[2'-Hydroxy-3'-phenylmethyl-4'-aza-5'-oxo-5'-(2"-methyl-3"-hydroxyphenyl)pentyl]pyrrolidine-2-N-t-butylcarboxamide] | 3050
Cc1c(O)cccc1C(=O)N[C@@H](Cc1ccccc1)[C@H](O)CN1CCCC[C@H]1C(=O)NC(C)(C)C [Example 6, [2S-(2R*,2'S*,3'R*)]-1-[2'-Hydroxy-3'-phenylmethyl-4'-aza-5'-oxo-5'-(2"-methyl-3"-hydroxyphenyl)pentyl]piperidine-2-N-t-butylcarboxamide] | 1070

Same assay, conditions: read-out: Fluorescence Assay IC50 (converted)

IC50 [nM] | SMILES
455 | CC(C)(C)NC(=O)[C@@H]1C[C@@H]2CCCC[C@@H]2CN1C[C@@H](O)[C@H](Cc1ccccc1)NC(=O)c1c(Cl)ccc(O)c1Cl [Example 17, [3S-(3R*,4aR*,8aR*,2'S*,3'R*)]-2-[2'-Hydroxy-3'-phenylmethyl-4'-aza-5'-oxo-5'-(2",6"-dichloro-3"-hydroxyphenyl)pentyl]decahydroisoquinoline-3-N-t-butylcarboxamide]
7.18 | CC(C)(C)NC(=O)[C@@H]1CN(Cc2cccnc2)CCN1C[C@@H](O)[C@H](CSc1ccccc1)NC(=O)c1cccc2ncccc12 [Example 34, [2S-(2R*,2'S*,3'S*)]-1-[2'-Hydroxy-3'-phenylthiomethyl-4'-aza-5'-oxo-5'-(quinolin-5"-yl)pentyl]-4-(pyrid-3'"-ylmethyl)piperazine-2-N-t-butylcarboxamide]
53.7 | Cc1cnccc1C(=O)N[C@@H](CSc1ccccc1)[C@H](O)CN1CCN(Cc2cccnc2)C[C@H]1C(=O)NC(C)(C)C [Example 35, [2S-(2R*,2'S*,3'S*)]-1-[2'-Hydroxy-3'-phenylthiomethyl-4'-aza-5'-oxo-5'-[3"-methyl-pyrid-4"-yl)]pentyl]-4-(pyrid-3'"-ylmethyl)piperazine-2-N-t-butylcarboxamide]
25.2 | Cc1ccc2ncccc2c1C(=O)N[C@@H](CSc1ccccc1)[C@H](O)CN1C[C@H]2CCCC[C@H]2C[C@H]1C(=O)NC(C)(C)C [Example 38]

More lines, now with the values behind:

SMILES | IC50 [nM]
CC(C)(C)NC(=O)[C@@H]1C[C@@H]2CCCC[C@@H]2CN1C[C@@H](O)[C@H](Cc1ccccc1)NC(=O)c1cccc(Cl)c1Cl [Example 14, [3S-(3R*,4aR*,8aR*,2'S*,3R*)]-2-[2'-Hydroxy-3'-phenylmethyl-4'-aza-5'-oxo-5'-(2",3"-dichlorophenyl)pentyl]decahydroisoquinoline-3-N-t-butylcarboxamide] | 176
Cc1c(C(=O)N[C@@H](Cc2ccccc2)[C@H](O)CN2C[C@H]3CCCC[C@H]3C[C@H]2C(=O)NC(C)(C)C)cc[nH]c1=O [Example 16, [3S-(3R*,4aR*,8aR*,2'S*,3'R*)]-2-[2'-Hydroxy-3-phenylmethyl-4'-aza-5'-oxo-5'-(2"-oxo-3"-methyl-pyrid-4"-yl)pentyl]decahydroisoquinoline-3-N-t-butylcarboxamide] | 613

Same assay, conditions: read-out: Fluorescence Assay IC50; […]; room temperature, 16 hours with substrate

SMILES | IC50 [nM]
Cc1c(NS(C)(=O)=O)cccc1C(=O)N[C@@H](Cc1ccccc1)[C@H](O)CN1C[C@H]2CCCC[C@H]2C[C@H]1C(=O)NC(C)(C)C [Example 36, [3S-(3R*,4aR*,8aR*,2'S*,3'S*)]-2-[2'-Hydroxy-3'-phenylmethyl-4'-aza-5'-oxo-5'-[2"-methyl-3"-N-(methylsulfonyl)amino-phenyl)]pentyl]decahydroisoquinoline-3-N-t-butylcarboxamide] | 101
